This test concerns HBsAg. The test is described as follows: HBsAg assay (inhibition of HBsAg in HepG2.2.15 cells). The format is cell-based, hepatitis B virus. The following applies: supernatant HBsAg by CLIA at day 6 after exposure of compounds. Here is the method: Inhibition of HBsAg was determined in HepG2.2.15 cells. Cells were maintained in culture medium containing 10% fetal calf serum, […], Glutamine, penicillin/streptomycin. Cells were seeded in 96-well collagen-coated plate at a density of 30,000 cells/well. Serially diluted compounds were added to cells next day at the final DMSO concentration of 0.5%. Cells were incubated with compounds for 2-3 days, after which medium was removed. Fresh medium containing compounds was added to cells for additional 3-4 days. At day 6 after exposure of compounds, supernatant was collected, the HBsAg immunoassay (microplate-based chemiluminescence immunoassay kits, CLIA, Autobio Diagnosics Co., Zhengzhou, China, Catalog #CL0310-2) was used to determine the level of HBsAg according to manufactory instruction. Dose-response curves were generated and the EC50 value (effective concentrations that achieved 50% inhibitory effect) were determined using XLfit software. In addition, cells were seeded at a density of 5,000 cells/well for determination of cell viability in the presence and absence of compounds by using CellTiter-Glo reagent (Promega).

Where [1] appears, read: Hepatitis B virus, HepG2.2.15, 144 h, read-out: sAg EC50, HepG2.2.15 cells.
Where [2] appears, read: read-out: sAg EC50, HepG2.2.15 cells.

Like-named read-outs stand apart in the source and are kept apart here.

Broadly, the EC50 is the concentration at which the effect is half-maximal. With `COc1cc2c(cc1F)C1(CC1)N(c1ccnc(-c3ncccn3)n1)C2=O` [Example 47, 2′-([2,2′-Bipyrimidin]-4-yl)-6′-fluoro-5′-methoxyspiro[cyclopropane-1,1′-isoindolin]-3′-one], the EC50 under setting [1] was found to be 120 nM. Consider `CCC1c2cc(OC)c(C)cc2C(=O)N1c1ccnc(-c2ncccn2)n1` (single isomer, unassigned) [Example 5, 2-([2,2′-Bipyrimidin]-4-yl)-3-ethyl-5-methoxy-6-methylisoindolin-1-one], for which the EC50 under setting [2] stood at 1000 nM. Take `COc1cc2c(cc1OC)C(CCC(F)(F)F)N(c1ccnc(-c3ncccn3)n1)C2=O` (single isomer, unassigned) [Example 17, 2-([2,2′-Bipyrimidin]-4-yl)-5,6-dimethoxy-3-(3,3,3-trifluoropropyl)isoindolin-1-one]: under setting [2], the EC50 is 20 nM. Still for that read-out and setting: the value for `COCCC1c2cc(F)c(OC)cc2C(=O)N1c1ccnc(-c2ncccn2)n1` (single isomer, unassigned) [Example 53, 2-([2,2′-Bipyrimidin]-4-yl)-5-fluoro-6-methoxy-3-(2-methoxyethyl)isoindolin-1-one] was 38 nM.

For `CCC1c2cc(OC)c(Cl)cc2C(=O)N1c1ccnc(-c2ncccn2)n1` (single isomer, unassigned) [Example 7, 2-([2,2′-Bipyrimidin]-4-yl)-6-chloro-3-ethyl-5-methoxyisoindolin-1-one], the EC50 under setting [2] came to 8000 nM. Same read-out and setting: the value for `CCC1c2cc(F)c(OC)cc2C(=O)N1c1ccnc(-c2ncccn2)n1` (single isomer, unassigned) [Example 49, 3-Ethyl-5-fluoro-6-methoxy-2-(2-pyrimidin-2-ylpyrimidin-4-yl)isoindolin-1-one] was 10 nM; that for `CCC1c2c(F)cc(Cl)cc2C(=O)N1c1ccnc(-c2ncccn2)n1` (single isomer, unassigned) [Example 8, 2-([2,2′-Bipyrimidin]-4-yl)-6-chloro-3-ethyl-4-fluoroisoindolin-1-one] was 10 nM. Consider `COc1cc2c(cc1OC)CN(c1ccnc(-c3ncccn3)n1)C(=O)C2` [Example 65, 2-([2,2′-Bipyrimidin]-4-yl)-6,7-dimethoxy-1,4-dihydroisoquinolin-3(2H)-one], for which the EC50 under setting [1] stood at 5000 nM. The same measure, in the same setting: the value for `CCC1c2cc(OC)c(OC)cc2C(=O)N1c1cc(-c2ncccn2)ncn1` (stereo not shown) [Example 37, 2-([2,4′-Bipyrimidin]-6′-yl)-3-ethyl-5,6-dimethoxyisoindolin-1-one] was 290 nM.

As for `CCOc1cc2c(cc1F)C(CC)N(c1nc(-c3ncccn3)ncc1F)C2=O` (single isomer, unassigned) [Example 56, 6-Ethoxy-3-ethyl-5-fluoro-2-(5-fluoro-[2,2′-bipyrimidin]-4-yl)isoindolin-1-one], the EC50 under setting [1] was 70 nM. On to `COc1cccc(C2c3cc(OC)c(OC)cc3C(=O)N2c2ccnc(-c3ncccn3)n2)c1` (single isomer, unassigned) [Example 13, 2-([2,2′-Bipyrimidin]-4-yl)-5,6-dimethoxy-3-(3-methoxyphenyl)isoindolin-1-one], for which the EC50 under setting [2] amounted to 1000 nM. The same measure, in the same setting: then `COc1cc2c(cc1OC)C(c1ccc(C)nc1)N(c1ccnc(-c3ncccn3)n1)C2=O` (single isomer, unassigned) [Example 18, 2-([2,2′-Bipyrimidin]-4-yl)-5,6-dimethoxy-3-(6-methylpyridin-3-yl)isoindolin-1-one], with 10 nM. For the molecule `CCC1c2cc(OC)c(OC)cc2C(=O)N1c1ccnc(-c2ncccn2)n1` (stereo not shown) [Example 1, 2-([2,2′-Bipyrimidin]-4-yl)-3-ethyl-5,6-dimethoxyisoindolin-1-one], the EC50 under setting [1] was determined as 27 nM. Still for that read-out and setting: the value for `CCC1c2cc(F)c(OC(C)C)cc2C(=O)N1c1nc(-c2ncccn2)ncc1F` (single isomer, unassigned) [Example 57, 3-Ethyl-5-fluoro-2-(5-fluoro-[2,2′-bipyrimidin]-4-yl)-6-isopropoxyisoindolin-1-one] was 110 nM; that for `CCC1c2cc(OC)c(OC)cc2C(=O)N1c1cncc(-c2ncccn2)n1` (stereo not shown) [Example 35, 3-Ethyl-5,6-dimethoxy-2-(6-(pyrimidin-2-yl)pyrazin-2-yl)isoindolin-1-one] was 1000 nM. For the molecule `CCC1c2cc(OC)c(OC)cc2C(=O)N1c1ccnc(-c2ncccn2)n1` (single isomer, unassigned) [Example 2, 2-([2,2′-Bipyrimidin]-4-yl)-3-ethyl-5,6-dimethoxyisoindolin-1-one], under setting [2], the EC50 was determined as 13 nM. Same read-out and setting: the value for `CCC1c2cc(OC)c(OC)cc2C(=O)N1c1ccnc(-c2ncccn2)n1` (single isomer, unassigned) [Example 3, 2-([2,2′-Bipyrimidin]-4-yl)-3-ethyl-5,6-dimethoxyisoindolin-1-one] was 1000 nM; that for `COc1ccc(C2c3cc(OC)c(OC)cc3C(=O)N2c2ccnc(-c3ncccn3)n2)cc1` (single isomer, unassigned) [Example 11, 2-([2,2′-Bipyrimidin]-4-yl)-5,6-dimethoxy-3-(4-methoxyphenyl)isoindolin-1-one] was 4000 nM.

For `CCC1c2cc(F)c(F)cc2C(=O)N1c1cnc(-c2ncccn2)nc1` (single isomer, unassigned) [Example 59, 2-([2,2′-Bipyrimidin]-5-yl)-3-ethyl-5,6-difluoroisoindolin-1-one], under setting [1], the EC50 is 10000 nM. On the same count and under the same terms, the value for `CCC1c2cc(OC)c(OC)cc2C(=O)N1c1cc(C)nc(-c2ncccn2)n1` (stereo not shown) [Example 36, 3-Ethyl-5,6-dimethoxy-2-(6-methyl-[2,2′-bipyrimidin]-4-yl)isoindolin-1-one] was 10000 nM. In the case of `CCC1c2cc(F)c(OC)cc2C(=O)N1c1nc(-c2ncccn2)ncc1F` (single isomer, unassigned) [Example 74, 3-Ethyl-5-fluoro-2-(5-fluoro-[2,2′-bipyrimidin]-4-yl)-6-methoxyisoindolin-1-one], the EC50 under setting [2] stood at 300 nM.

Take `COc1cc2c(cc1OC)C(Cc1ccccc1)N(c1ccnc(-c3ncccn3)n1)C2=O` (single isomer, unassigned) [Example 14, 2-([2,2′-Bipyrimidin]-4-yl)-3-benzyl-5,6-dimethoxyisoindolin-1-one]: the EC50 under setting [2] worked out at 100 nM. Turning to `CCCC1c2cc(F)c(OC)cc2C(=O)N1c1nc(-c2ncccn2)ncc1F` (single isomer, unassigned) [Example 58, 5-Fluoro-2-(5-fluoro-[2,2′-bipyrimidin]-4-yl)-6-methoxy-3-propylisoindolin-1-one], under setting [1], the EC50 turned out to be 20 nM. On the same count and under the same terms, the value for `COc1cc2c(cc1OC)C(c1sccc1C)N(c1ccnc(-c3ncccn3)n1)C2=O` (stereo not shown) [Example 27, 2-([2,2′-Bipyrimidin]-4-yl)-5,6-dimethoxy-3-(3-methylthiophen-2-yl)isoindo-lin-1-one] was 1 nM. Take `CCC1c2cc(OC)c(OC)cc2C(=O)N1c1cc(F)nc(-c2ncccn2)n1` (single isomer, unassigned) [Example 69, 3-Ethyl-2-(6-fluoro-[2,2′-bipyrimidin]-4-yl)-5,6-dimethoxyisoindolin-1-one]: the EC50 under setting [2] amounted to 49000 nM. Turning to `COc1cc2c(cc1OC)C(CC(C)C)N(c1ccnc(-c3ncccn3)n1)C2=O` (single isomer, unassigned) [Example 41, 2-([2,2′-Bipyrimidin]-4-yl)-3-isobutyl-5,6-dimethoxyisoindolin-1-one], the EC50 under setting [2] is 1000 nM. On the same count and under the same terms, the value for `CCC1c2cc(OC)c(OC)cc2C(=O)N1c1ccnc(-c2ncc(F)cn2)n1` (single isomer, unassigned) [Example 72, 3-Ethyl-2-(5′-fluoro-[2,2′-bipyrimidin]-4-yl)-5,6-dimethoxyisoindolin-1-one] was 39 nM. For the molecule `CCC1c2cc(Cl)cc(F)c2C(=O)N1c1ccnc(-c2ncccn2)n1` (single isomer, unassigned) [Example 21, 2-([2,2′-Bipyrimidin]-4-yl)-5-chloro-3-ethyl-7-fluoroisoindolin-1-one], the EC50 under setting [2] is 25000 nM.

Regarding `CCC1c2cc(F)c(OC)cc2C(=O)N1c1nc(-c2ncccn2)ncc1F` (single isomer, unassigned) [Example 55, 3-Ethyl-5-fluoro-2-(5-fluoro-2-pyrimidin-2-yl-pyrimidin-4-yl)-6-methoxy-isoindolin-1-one], the EC50 under setting [2] stood at 50 nM. As for `O=C1c2c(F)cc(F)cc2CN1c1ccnc(-c2ncccn2)n1` [Example 60, 2-([2,2′-Bipyrimidin]-4-yl)-5,7-difluoroisoindolin-1-one], under setting [1], the EC50 was determined as 850 nM.

With `COc1cc2c(cc1OC)C(C1CCC1)N(c1ccnc(-c3ncccn3)n1)C2=O` (stereo not shown) [Example 28, 2-([2,2′-Bipyrimidin]-4-yl)-3-cyclobutyl-5,6-dimethoxyisoindolin-1-one], under setting [1], the EC50 stood at 2 nM. The same measure, in the same setting: the value for `COc1cc2c(cc1OC)C(=O)N(c1ccnc(-c3ncccn3)n1)CC2` [Example 63, 2-([2,2′-Bipyrimidin]-4-yl)-6,7-dimethoxy-3,4-dihydroisoquinolin-1(2H)-one] was 520 nM.

With `CCC1c2c(F)cc(Cl)cc2C(=O)N1c1ccnc(-c2ncccn2)n1` (single isomer, unassigned) [Example 9, 2-([2,2′-Bipyrimidin]-4-yl)-6-chloro-3-ethyl-4-fluoroisoindolin-1-one], under setting [2], the EC50 stood at 5000 nM.

Regarding `COCCC1c2cc(F)c(OC)cc2C(=O)N1c1ccnc(-c2ncccn2)n1` (single isomer, unassigned) [Example 54, 2-([2,2′-Bipyrimidin]-4-yl)-5-fluoro-6-methoxy-3-(2-methoxyethyl)isoindolin-1-one], the EC50 under setting [2] is 430 nM.

For the origin of these results see US20230019280A1, “SUBSTITUTED ISOINDOLONYL 2,2'-BIP[…], ANALOGUES THEREOF, AND METHODS USING SAME” (priority 2019, published 2023).
